Laboratory results taken from US7063946B2, “Methods, reagents, kits and apparatus for protein function analysis” (Meso Scale Technologies, LLC., priority 2001, dated 2006).

How the values were obtained:
Experiment in all cases: Kinase inhibitor profiling, pEY phosphorylation
Assay type in all cases: biochemical
BMX = target: T1, BMX (Homo sapiens, UniProt P51813)
T1 construct: specificity data for proteins generated from a library of eighteen full-length clones; host or cells: rabbit reticulocyte lysate, TnT coupled in vitro transcription/translation (cell-free)
T1 sequence (P51813 1-675): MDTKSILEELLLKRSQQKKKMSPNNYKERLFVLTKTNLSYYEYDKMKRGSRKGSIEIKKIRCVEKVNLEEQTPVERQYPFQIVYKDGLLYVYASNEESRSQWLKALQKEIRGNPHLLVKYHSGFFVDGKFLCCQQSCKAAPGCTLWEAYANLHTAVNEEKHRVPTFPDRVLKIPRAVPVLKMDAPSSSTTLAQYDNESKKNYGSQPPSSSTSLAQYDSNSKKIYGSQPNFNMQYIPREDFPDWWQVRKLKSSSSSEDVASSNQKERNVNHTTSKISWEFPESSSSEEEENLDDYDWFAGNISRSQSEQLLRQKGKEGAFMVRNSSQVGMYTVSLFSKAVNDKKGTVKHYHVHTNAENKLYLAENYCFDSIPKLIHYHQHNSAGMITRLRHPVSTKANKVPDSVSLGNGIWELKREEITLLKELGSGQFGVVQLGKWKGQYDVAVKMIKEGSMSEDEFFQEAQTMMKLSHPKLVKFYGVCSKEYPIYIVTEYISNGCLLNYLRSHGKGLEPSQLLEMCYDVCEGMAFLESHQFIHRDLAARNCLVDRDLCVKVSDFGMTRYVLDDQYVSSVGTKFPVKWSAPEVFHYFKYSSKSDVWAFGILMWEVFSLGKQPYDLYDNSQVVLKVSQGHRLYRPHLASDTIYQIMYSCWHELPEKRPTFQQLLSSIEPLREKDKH

Tek = target: T2, Tek (Mus musculus, UniProt Q02858)
T2 construct: specificity data for proteins generated from a library of eighteen full-length clones; host or cells: rabbit reticulocyte lysate, TnT coupled in vitro transcription/translation (cell-free)
T2 sequence (Q02858 23-1122): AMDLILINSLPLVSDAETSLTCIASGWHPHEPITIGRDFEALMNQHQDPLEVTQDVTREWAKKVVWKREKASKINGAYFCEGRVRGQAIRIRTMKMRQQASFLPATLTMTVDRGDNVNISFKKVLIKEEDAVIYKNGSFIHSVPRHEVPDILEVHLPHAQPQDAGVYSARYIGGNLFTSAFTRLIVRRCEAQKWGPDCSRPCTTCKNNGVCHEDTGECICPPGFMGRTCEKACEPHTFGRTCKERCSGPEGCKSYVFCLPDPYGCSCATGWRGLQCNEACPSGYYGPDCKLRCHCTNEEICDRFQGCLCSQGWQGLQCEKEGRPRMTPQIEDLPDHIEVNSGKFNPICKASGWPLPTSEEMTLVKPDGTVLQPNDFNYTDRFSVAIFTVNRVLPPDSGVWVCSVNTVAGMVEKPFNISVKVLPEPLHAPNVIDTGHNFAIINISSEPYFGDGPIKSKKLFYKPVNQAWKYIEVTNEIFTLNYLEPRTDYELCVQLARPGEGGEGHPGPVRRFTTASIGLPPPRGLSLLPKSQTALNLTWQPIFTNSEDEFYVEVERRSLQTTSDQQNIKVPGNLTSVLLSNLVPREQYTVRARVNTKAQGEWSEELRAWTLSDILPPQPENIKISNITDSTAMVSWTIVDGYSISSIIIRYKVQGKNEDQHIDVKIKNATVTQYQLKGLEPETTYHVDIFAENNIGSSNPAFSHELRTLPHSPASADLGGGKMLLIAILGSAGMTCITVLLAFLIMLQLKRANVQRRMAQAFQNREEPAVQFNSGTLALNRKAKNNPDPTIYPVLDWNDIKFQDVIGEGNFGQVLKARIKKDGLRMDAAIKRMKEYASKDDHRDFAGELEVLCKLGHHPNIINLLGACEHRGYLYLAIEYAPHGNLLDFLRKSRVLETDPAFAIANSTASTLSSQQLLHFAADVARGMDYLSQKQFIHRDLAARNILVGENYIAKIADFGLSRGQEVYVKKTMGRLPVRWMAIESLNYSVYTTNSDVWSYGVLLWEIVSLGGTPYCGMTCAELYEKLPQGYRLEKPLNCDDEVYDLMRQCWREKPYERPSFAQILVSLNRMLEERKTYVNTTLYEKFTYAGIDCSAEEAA

CSK = target: T3, CSK (Homo sapiens, UniProt P41240)
T3 construct: specificity data for proteins generated from a library of eighteen full-length clones; host or cells: rabbit reticulocyte lysate, TnT coupled in vitro transcription/translation (cell-free)
T3 sequence (P41240 whole entry): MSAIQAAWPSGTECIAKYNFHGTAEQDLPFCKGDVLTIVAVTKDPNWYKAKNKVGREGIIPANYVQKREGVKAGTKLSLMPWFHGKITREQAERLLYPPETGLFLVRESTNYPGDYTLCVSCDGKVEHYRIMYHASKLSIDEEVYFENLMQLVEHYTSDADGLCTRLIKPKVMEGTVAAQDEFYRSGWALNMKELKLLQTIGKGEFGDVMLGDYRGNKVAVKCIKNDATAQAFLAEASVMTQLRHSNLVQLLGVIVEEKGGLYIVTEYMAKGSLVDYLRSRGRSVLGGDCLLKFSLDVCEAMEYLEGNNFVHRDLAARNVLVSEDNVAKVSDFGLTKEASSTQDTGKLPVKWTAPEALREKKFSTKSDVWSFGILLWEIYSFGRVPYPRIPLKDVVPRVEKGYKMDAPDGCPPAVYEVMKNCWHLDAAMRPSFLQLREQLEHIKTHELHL

HCK = target: T4, HCK (Homo sapiens, UniProt P08631)
T4 construct: specificity data for proteins generated from a library of eighteen full-length clones; host or cells: rabbit reticulocyte lysate, TnT coupled in vitro transcription/translation (cell-free)
T4 sequence (P08631 whole entry): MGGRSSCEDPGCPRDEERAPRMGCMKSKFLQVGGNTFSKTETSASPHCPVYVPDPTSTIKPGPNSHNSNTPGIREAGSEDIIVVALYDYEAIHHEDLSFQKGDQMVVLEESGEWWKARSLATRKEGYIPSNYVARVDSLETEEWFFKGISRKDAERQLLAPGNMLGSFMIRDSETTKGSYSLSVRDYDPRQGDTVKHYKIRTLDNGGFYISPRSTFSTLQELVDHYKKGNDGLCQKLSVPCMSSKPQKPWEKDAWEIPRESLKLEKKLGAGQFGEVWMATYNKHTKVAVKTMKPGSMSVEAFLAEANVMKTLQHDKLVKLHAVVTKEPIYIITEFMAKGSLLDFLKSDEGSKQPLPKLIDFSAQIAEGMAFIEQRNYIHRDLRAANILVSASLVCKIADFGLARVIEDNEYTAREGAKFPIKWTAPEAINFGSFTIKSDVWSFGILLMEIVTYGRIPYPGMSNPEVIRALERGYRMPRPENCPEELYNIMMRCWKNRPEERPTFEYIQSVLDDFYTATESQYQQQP

SRC = target: T5, SRC (Mus musculus, UniProt P05480)
T5 construct: specificity data for proteins generated from a library of eighteen full-length clones; host or cells: rabbit reticulocyte lysate, TnT coupled transcription/translation
T5 sequence (P05480 whole entry): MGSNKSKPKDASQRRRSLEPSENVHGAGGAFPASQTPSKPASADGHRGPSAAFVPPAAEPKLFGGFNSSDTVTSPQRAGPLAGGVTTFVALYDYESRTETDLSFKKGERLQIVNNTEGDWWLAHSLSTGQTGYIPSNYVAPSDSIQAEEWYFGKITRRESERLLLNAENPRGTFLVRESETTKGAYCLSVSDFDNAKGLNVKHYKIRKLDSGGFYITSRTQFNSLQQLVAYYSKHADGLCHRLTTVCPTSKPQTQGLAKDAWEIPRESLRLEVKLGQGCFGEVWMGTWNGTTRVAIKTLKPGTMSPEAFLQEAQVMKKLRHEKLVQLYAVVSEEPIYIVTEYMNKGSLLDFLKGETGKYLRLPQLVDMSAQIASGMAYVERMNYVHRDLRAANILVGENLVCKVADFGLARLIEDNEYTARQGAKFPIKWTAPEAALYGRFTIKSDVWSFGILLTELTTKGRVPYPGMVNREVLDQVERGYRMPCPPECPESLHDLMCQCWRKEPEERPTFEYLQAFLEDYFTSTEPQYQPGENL

PTK2B = target: T6, PTK2B (Homo sapiens, UniProt Q14289)
T6 construct: specificity data for proteins generated from a library of eighteen full-length clones; host or cells: rabbit reticulocyte lysate, TnT coupled in vitro transcription/translation (cell-free)
T6 sequence (Q14289 whole entry): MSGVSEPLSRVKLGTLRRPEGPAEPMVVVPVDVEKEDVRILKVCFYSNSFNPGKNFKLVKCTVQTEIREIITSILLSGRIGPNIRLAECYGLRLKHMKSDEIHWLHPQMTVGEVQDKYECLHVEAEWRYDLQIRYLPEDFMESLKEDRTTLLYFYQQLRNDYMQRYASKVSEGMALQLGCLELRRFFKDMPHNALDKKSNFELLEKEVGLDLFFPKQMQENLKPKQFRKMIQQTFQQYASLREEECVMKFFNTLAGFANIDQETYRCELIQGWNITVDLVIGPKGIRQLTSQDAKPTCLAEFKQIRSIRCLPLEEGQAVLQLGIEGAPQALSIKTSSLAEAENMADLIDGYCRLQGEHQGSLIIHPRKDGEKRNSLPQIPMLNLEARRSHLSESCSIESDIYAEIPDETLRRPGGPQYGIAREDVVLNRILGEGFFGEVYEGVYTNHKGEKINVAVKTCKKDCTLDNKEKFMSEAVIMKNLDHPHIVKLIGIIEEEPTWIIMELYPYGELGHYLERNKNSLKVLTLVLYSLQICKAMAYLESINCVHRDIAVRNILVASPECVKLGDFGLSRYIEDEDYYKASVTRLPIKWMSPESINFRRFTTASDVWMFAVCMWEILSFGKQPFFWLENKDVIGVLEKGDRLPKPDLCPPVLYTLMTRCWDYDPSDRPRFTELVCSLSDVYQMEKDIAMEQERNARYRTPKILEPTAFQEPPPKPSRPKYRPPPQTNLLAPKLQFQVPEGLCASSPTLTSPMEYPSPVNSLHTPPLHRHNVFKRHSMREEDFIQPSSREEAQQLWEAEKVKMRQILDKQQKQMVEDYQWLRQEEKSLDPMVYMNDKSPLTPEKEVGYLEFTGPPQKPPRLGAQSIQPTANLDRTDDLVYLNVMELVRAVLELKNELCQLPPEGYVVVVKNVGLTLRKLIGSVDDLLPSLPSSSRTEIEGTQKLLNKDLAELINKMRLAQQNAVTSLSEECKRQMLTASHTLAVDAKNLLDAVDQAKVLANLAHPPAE

Epha7 = target: T7, Epha7 (Mus musculus, UniProt Q61772)
T7 construct: autophosphorylation activity from full-length clones Spleen Tyrosine Kinase (SYK) and Eph receptor-A7 (EphA7); host or cells: rabbit reticulocyte lysate, TnT coupled in vitro transcription/translation (cell-free)
T7 sequence (Q61772 28-998): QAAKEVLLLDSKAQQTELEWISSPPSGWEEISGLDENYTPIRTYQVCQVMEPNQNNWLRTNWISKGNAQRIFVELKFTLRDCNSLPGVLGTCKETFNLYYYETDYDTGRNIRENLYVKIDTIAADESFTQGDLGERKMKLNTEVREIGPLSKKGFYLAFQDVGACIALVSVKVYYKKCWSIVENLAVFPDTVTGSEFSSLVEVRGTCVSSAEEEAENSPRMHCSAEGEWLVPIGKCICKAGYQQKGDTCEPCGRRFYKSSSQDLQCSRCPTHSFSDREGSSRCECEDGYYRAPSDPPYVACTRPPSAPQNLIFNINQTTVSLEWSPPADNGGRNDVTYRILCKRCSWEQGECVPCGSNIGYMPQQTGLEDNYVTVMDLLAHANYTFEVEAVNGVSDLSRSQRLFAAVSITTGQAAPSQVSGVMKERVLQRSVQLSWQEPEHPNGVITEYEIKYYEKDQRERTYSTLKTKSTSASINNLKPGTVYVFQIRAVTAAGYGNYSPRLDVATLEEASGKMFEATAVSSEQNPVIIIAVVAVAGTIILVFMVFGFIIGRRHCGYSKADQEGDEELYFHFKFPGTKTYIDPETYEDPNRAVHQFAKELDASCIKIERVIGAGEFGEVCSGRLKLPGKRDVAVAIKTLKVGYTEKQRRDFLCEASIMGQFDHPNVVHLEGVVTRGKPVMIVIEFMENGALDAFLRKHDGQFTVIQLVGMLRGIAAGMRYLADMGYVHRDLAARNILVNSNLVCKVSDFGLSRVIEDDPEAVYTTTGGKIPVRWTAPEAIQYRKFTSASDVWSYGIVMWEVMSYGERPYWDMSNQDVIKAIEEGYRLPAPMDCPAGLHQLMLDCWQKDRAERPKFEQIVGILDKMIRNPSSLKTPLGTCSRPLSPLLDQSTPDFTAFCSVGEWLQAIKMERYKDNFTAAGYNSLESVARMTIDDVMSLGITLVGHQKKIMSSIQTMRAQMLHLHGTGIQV

SYK = target: T8, SYK (Homo sapiens, UniProt P43405)
T8 construct: autophosphorylation activity from full-length clones Spleen Tyrosine Kinase (SYK) and Eph receptor-A7 (EphA7); host or cells: rabbit reticulocyte lysate, TnT coupled in vitro transcription/translation (cell-free)

Structure (SMILES) | Inhibition specificity towards pEY phosphorylation at 10X IC50, BMX (BMX) | Inhibition specificity towards pEY phosphorylation at 10X IC50, Tek (Tek) | Inhibition specificity towards pEY phosphorylation at 10X IC50, CSK (CSK) | Inhibition specificity towards pEY phosphorylation at 10X IC50, HCK (HCK) | Inhibition specificity towards pEY phosphorylation at 10X IC50, Src (SRC) | Inhibition specificity towards pEY phosphorylation at 10X IC50, PTK2B (PTK2B) | Inhibition specificity towards pEY phosphorylation at 10X IC50, Epha7 (Epha7) | Inhibition specificity towards pEY phosphorylation at 10X IC50, SYK (SYK)
Cc1ccc(-c2nn(C(C)(C)C)c3ncnc(N)c23)cc1 [PP1] | L (low inhibition (“L”=between 50–75% of the activity remaining)) |  |  |  |  |  |  | 
COC(=O)c1ccc(NCc2cc(O)ccc2O)cc1 [AG-957] | L (low inhibition (“L”=between 50–75% of the activity remaining)) | L (low inhibition (“L”=between 50–75% of the activity remaining)) | M (medium inhibition (“M”=between 25 to 50% of the activity remaining)) |  |  |  |  | 
COc1cc2ncnc(Nc3ccc(O)cc3)c2cc1OC [WHI-P131] | L (low inhibition (“L”=between 50–75% of the activity remaining)) | L (low inhibition (“L”=between 50–75% of the activity remaining)) |  | L (low inhibition (“L”=between 50–75% of the activity remaining)) | L (low inhibition (“L”=between 50–75% of the activity remaining)) | L (low inhibition (“L”=between 50–75% of the activity remaining)) | L (low inhibition (“L”=between 50–75% of the activity remaining)) | 
Cc1cc2ncc(-c3ccc(O)c(O)c3)nc2cc1C [AG-1433] | H (high inhibition (“H”=less than 25% of the activity remaining)) | M (medium inhibition (“M”=between 25 to 50% of the activity remaining)) | M (medium inhibition (“M”=between 25 to 50% of the activity remaining)) | M (medium inhibition (“M”=between 25 to 50% of the activity remaining)) | H (high inhibition (“H”=less than 25% of the activity remaining)) | L (low inhibition (“L”=between 50–75% of the activity remaining)) | L (low inhibition (“L”=between 50–75% of the activity remaining)) | M (medium inhibition (“M”=between 25 to 50% of the activity remaining))
COc1c(C=O)c(O)cc2c1C(=O)c1ccccc1C2=O [Damnacanthal] | H (high inhibition (“H”=less than 25% of the activity remaining)) | M (medium inhibition (“M”=between 25 to 50% of the activity remaining)) | H (high inhibition (“H”=less than 25% of the activity remaining)) | H (high inhibition (“H”=less than 25% of the activity remaining)) | H (high inhibition (“H”=less than 25% of the activity remaining)) | H (high inhibition (“H”=less than 25% of the activity remaining)) | H (high inhibition (“H”=less than 25% of the activity remaining)) | H (high inhibition (“H”=less than 25% of the activity remaining))
CC(C)(C)c1cc(C=C(C#N)C#N)cc(Br)c1O [AG-1024] |  | L (low inhibition (“L”=between 50–75% of the activity remaining)) |  |  |  |  |  | L (low inhibition (“L”=between 50–75% of the activity remaining))
